Measurements: US4401660A, “Ester derivatives of 5-O-mycaminosyl tylonolide and method of using same” (Eli Lilly and Company, priority 1981, dated 1983)
Where two headings read alike, the source gives them in different places.

How the values were obtained:
Pasteurella multocida = assay: Treatment of Pasteurella infections in chicks (Table V); format: in vivo, one-day-old chicks; settings: 30 mg/kg by subcutaneous injection one and four hours post challenge; for mortality at 30 mg/kg: Pasteurella multocida, sc, 4 h, read-out: Deaths in Treated Chicks/Number Treated (converted)
In short: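 Dosing was 30 mg/kg by subcutaneous injection, one and four hours after challenge. Day-old chicks received 0.1 ml of a 10^-3 dilution of a 20-hour tryptose broth culture of avian P. multocida subcutaneously. Nonmedicated infected chicks served as controls, ten per group.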

[1] = system: Streptococcus Group D X66; assay: MIC, standard agar-dilution assay (Table II); format: cell-based; design: unit not given here
Experimental: (§1) The MIC's in Table II were determined by standard agar-dilution assays. The MIC's in Table III were obtained using a conventional broth-dilution microtiter test.

[2] = system: Staphylococcus aureus X400; assay: MIC, standard agar-dilution assay (Table II); format: cell-based; design: unit not given here; settings: Staphylococcus aureus X400, methicillin-resistant strain
Experimental: as §1

[3] = system: Staphylococcus aureus S13E; assay: MIC, standard agar-dilution assay (Table II); format: cell-based; design: unit not given here
Experimental: as §1

[4] = system: Staphylococcus aureus V41; assay: MIC, standard agar-dilution assay (Table II); format: cell-based; design: unit not given here; settings: Staphylococcus aureus V41, penicillin-resistant strain
Experimental: as §1

[5] = system: Streptococcus pyogenes C203; assay: MIC, standard agar-dilution assay (Table II); format: cell-based; design: unit not given here
Experimental: as §1

[6] = system: Staphylococcus epidermidis EPI2; assay: MIC, standard agar-dilution assay (Table II); format: cell-based; design: unit not given here
Experimental: as §1

[7] = system: Streptococcus Group D 9960; assay: MIC, standard agar-dilution assay (Table II); format: cell-based; design: unit not given here
Experimental: as §1

[8] = system: Staphylococcus epidermidis EPI1; assay: MIC, standard agar-dilution assay (Table II); format: cell-based; design: unit not given here
Experimental: as §1

[9] = system: Staphylococcus aureus X1.1; assay: MIC, standard agar-dilution assay (Table II); format: cell-based; design: unit not given here
Experimental: as §1

[10] = system: Streptococcus pneumoniae Park I; assay: MIC, standard agar-dilution assay (Table II); format: cell-based; design: unit not given here
Experimental: as §1

[11] = system: Pasteurella haemolytica 23C; assay: MIC, broth-dilution microtiter test (Table III); format: cell-based; design: unit not given here
Experimental: as §1

[12] = system: Pasteurella multocida 22A; assay: MIC, broth-dilution microtiter test (Table III); format: cell-based; design: unit not given here
Experimental: as §1

Staphylococcus aureus = assay: MIC, broth-dilution microtiter test (Table III); format: cell-based; design: unit not given here
Experimental: as §1

Mycoplasma gallisepticum = assay: MIC, broth-dilution microtiter test (Table III); format: cell-based; design: unit not given here
Experimental: as §1

[13] = system: Pasteurella multocida 40G; assay: MIC, broth-dilution microtiter test (Table III); format: cell-based; design: unit not given here
Experimental: as §1

[14] = system: Pasteurella haemolytica 22C; assay: MIC, broth-dilution microtiter test (Table III); format: cell-based; design: unit not given here
Experimental: as §1

[15] = system: Pasteurella multocida 60A; assay: MIC, broth-dilution microtiter test (Table III); format: cell-based; design: unit not given here; settings: avian isolate
Experimental: as §1

[16] = system: Pasteurella multocida 68C; assay: MIC, broth-dilution microtiter test (Table III); format: cell-based; design: unit not given here
Experimental: as §1

[17] = system: Pasteurella multocida 17E; assay: MIC, broth-dilution microtiter test (Table III); format: cell-based; design: unit not given here; settings: bovine isolate
Experimental: as §1

Mycoplasma synoviae = assay: MIC, broth-dilution microtiter test (Table III); format: cell-based; design: unit not given here
Experimental: as §1

Streptococcus sp. 80 = assay: MIC, broth-dilution microtiter test (Table III); format: cell-based; design: unit not given here
Experimental: as §1

Mycoplasma hyorhinis = assay: MIC, broth-dilution microtiter test (Table III); format: cell-based; design: unit not given here
Experimental: as §1

[18] = system: Pasteurella haemolytica 41D; assay: MIC, broth-dilution microtiter test (Table III); format: cell-based; design: unit not given here
Experimental: as §1

[19] = system: Streptococcus pyogenes C203; assay: ED50 in mice with experimental infections (Table IV); format: in vivo; settings: doses given 1 and 4 hours postinfection; for ED50: Streptococcus pyogenes
Experimental: The OMT ester derivatives of this invention have shown in vivo antimicrobial activity against experimental bacterial infections caused by gram-positive bacteria. When two doses of test compound were administered to mice with experimental infections, the activity observed was measured as an ED50 value [effective dose in mg/kg to protect 50% of the test animals: see Warren Wick, et al., J. Bacteriol. 81, 233-235 (1961)].
^a mg/kg × 2; doses given 1 and 4 hours postinfection

[20] = system: Haemophilus influenzae Holt; assay: MIC, standard agar-dilution assay (Table II); format: cell-based; design: unit not given here; settings: ampicillin-sensitive strain
Experimental: as §1

[21] = system: Haemophilus influenzae R252; assay: MIC, standard agar-dilution assay (Table II); format: cell-based; design: unit not given here; settings: Haemophilus influenzae R252, ampicillin-resistant strain
Experimental: as §1

[22] = C203, oral, read-out: ED50, Oral
[23] = C203, sc, subcutaneous, read-out: ED50, Subcutaneous

SMILES	minimal inhibitory concentration (MIC) [1]	minimal inhibitory concentration (MIC) [2]	minimal inhibitory concentration (MIC) [3]	minimal inhibitory concentration (MIC) [4]	minimal inhibitory concentration (MIC) [5]	minimal inhibitory concentration (MIC) [6]	minimal inhibitory concentration (MIC) [7]	minimal inhibitory concentration (MIC) [8]	minimal inhibitory concentration (MIC) [9]	minimal inhibitory concentration (MIC) [10]	minimal inhibitory concentration (MIC) [11]	minimal inhibitory concentration (MIC) [12]	minimal inhibitory concentration (MIC) (Staphylococcus aureus)	minimal inhibitory concentration (MIC) (Mycoplasma gallisepticum)	minimal inhibitory concentration (MIC) [14]	minimal inhibitory concentration (MIC) [15]	minimal inhibitory concentration (MIC) [16]	minimal inhibitory concentration (MIC) [17]	minimal inhibitory concentration (MIC) (Mycoplasma synoviae)	minimal inhibitory concentration (MIC) (Streptococcus sp. 80)	other results
CCC1OC(=O)CC(O)C(C)C(OC2OC(C)C(O)C(N(C)C)C2O)C(CC=O)CC(C)C(=O)C=CC(C)=CC1COC(=O)Cc1cccnc1 (stereo not drawn) [Compound 44, 23-O-(3-Pyridylacetyl)-OMT]	0.125	0.25	0.25	0.25	0.015	0.125	0.125	0.125	0.25	0.03	6.25	3.12	0.39	0.78	3.12	0.78	3.12	3.12	< 0.05	0.39	mortality at 30 mg/kg (Pasteurella multocida): 0%; minimal inhibitory concentration (MIC) [13]: 3.12; minimal inhibitory concentration (MIC) (Mycoplasma hyorhinis): 0.78; minimal inhibitory concentration (MIC) [18]: 6.25; ED50 [19, 22]: 150 mg/kg; ED50 [19, 23]: 13 mg/kg
CCC1OC(=O)CC(O)C(C)C(OC2OC(C)C(O)C(N(C)C)C2O)C(CC=O)CC(C)C(=O)C=CC(C)=CC1COC(=O)CSc1ccc(Cl)c(Cl)c1 (stereo not drawn) [Compound 38, 23-O-[(3,4-Dichlorophenylthio)acetyl]-OMT]	0.125	0.25	0.125	0.25	0.06	0.25	0.125	0.25	0.125	0.03	6.25	3.12	< 0.05	< 0.05	3.12	1.56	1.56	1.56	0.097	< 0.05	mortality at 30 mg/kg (Pasteurella multocida): 10%; minimal inhibitory concentration (MIC) [13]: 1.56; minimal inhibitory concentration (MIC) (Mycoplasma hyorhinis): 3.12; minimal inhibitory concentration (MIC) [18]: 6.25; ED50 [19, 22]: > 150 mg/kg
CCC1OC(=O)CC(O)C(C)C(OC2OC(C)C(OC(C)=O)C(N(C)C)C2OC(C)=O)C(CC=O)CC(C)C(=O)C=CC(C)=CC1COC(=O)CSc1ccc(Cl)c(Cl)c1 (stereo not drawn) [Compound 37, 2',4'-Di-O-acetyl-23-O-[(3,4-dichlorophenylthio)acetyl]-OMT]	2	4	2	4	0.5	4	2	2	2	0.5	6.25	6.25	0.39	< 0.05	6.25	3.12	0.78	1.56	0.78	< 0.05	mortality at 30 mg/kg (Pasteurella multocida): 100%; minimal inhibitory concentration (MIC) [13]: 3.12; minimal inhibitory concentration (MIC) (Mycoplasma hyorhinis): 6.25; minimal inhibitory concentration (MIC) [18]: 12.5; ED50 [19, 22]: > 150 mg/kg
CCC1OC(=O)CC(O)C(C)C(OC2OC(C)C(O)C(N(C)C)C2O)C(CC=O)CC(C)C(=O)C=CC(C)=CC1COP(=O)(Oc1ccccc1)Oc1ccccc1 (stereo not drawn) [Compound 48, 23-O-(Diphenylphosphoryl)-OMT]	0.25	0.25	0.25	0.25	0.125	0.25	0.25	0.25	0.25	0.03	12.5	6.25	0.39	0.78	6.25	6.25	6.25	6.25	0.78	0.195	Deaths in Treated Chicks/Number Treated (Pasteurella multocida): 10/10; minimal inhibitory concentration (MIC) [13]: 6.25; minimal inhibitory concentration (MIC) (Mycoplasma hyorhinis): 0.78; minimal inhibitory concentration (MIC) [18]: 6.25; ED50, Oral ([19]; oral): > 150 mg/kg × 2; ED50, Subcutaneous ([19]; subcutaneous): > 30 mg/kg × 2
CCC1OC(=O)CC(O)C(C)C(OC2OC(C)C(O)C(N(C)C)C2O)C(CC=O)CC(C)C(=O)C=CC(C)=CC1COC(=O)c1ccccc1 (stereo not drawn) [Compound 26, 23-O-Benzoyl-OMT]	0.25	0.5	0.25	0.25	0.125	0.5	0.25	0.25	0.25	0.06	3.12	1.56	0.39	< 0.05	6.25	0.78	1.56	1.56	0.39	0.195	mortality at 30 mg/kg (Pasteurella multocida): 100%; minimal inhibitory concentration (MIC) [20]: 2; minimal inhibitory concentration (MIC) [21]: 2; minimal inhibitory concentration (MIC) (Mycoplasma hyorhinis): 0.39; minimal inhibitory concentration (MIC) [18]: 6.25; ED50 [19, 22]: 136 mg/kg; ED50 [19, 23]: 10.6 mg/kg
